How the values were obtained:
[1] = tested on: Mycobacterium tuberculosis Erdman (pMV306hsp+LuxG13); experiment: AUC25, normalised area under the dose-response curve up to IC25 (normalised AUC (unitless)); higher = more potent
Protocol: (§1)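 DiaMOND pairwise dose responses of an equipotent two-drug mixture (1.5-fold, 10-dose series) against autoluminescent M. tuberculosis Erdman in 384-well plates. Growth inhibition was read by OD600 (luminescence for dormancy) in seven media at a constant and a terminal time point; metrics are means of at least biological duplicates. Einf and AUC25 higher = more potent; GRinf lower = more potent; log2FIC negative = synergy.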

[2] = tested on: Mycobacterium tuberculosis Erdman (pMV306hsp+LuxG13); experiment: log2 fractional inhibitory concentration at 90% inhibition (log2 FIC); higher = more antagonistic
Protocol: as §1

[3] = tested on: Mycobacterium tuberculosis Erdman (pMV306hsp+LuxG13); experiment: GRinf, normalised growth-rate inhibition at infinite dose (GR value (unitless, negative = killing)); higher = less potent
Protocol: as §1

[4] = tested on: Mycobacterium tuberculosis Erdman (pMV306hsp+LuxG13); experiment: Einf, effect of the drug pair at infinite dose (maximum growth inhibition) (fraction inhibition (0-1)); higher = more potent; extreme values may be limits of the assay
Protocol: as §1

[5] = tested on: Mycobacterium tuberculosis Erdman (pMV306hsp+LuxG13); experiment: log2 fractional inhibitory concentration at 50% inhibition (log2 FIC); higher = more antagonistic
Protocol: as §1

CC[C@@H](CO)NCCN[C@@H](CC)CO [ethambutol] + CC(=O)NC[C@H]1CN(c2ccc(N3CCSCC3)c(F)c2)C(=O)O1 [sutezolid]
Settings | AUC25, [1] | Einf, [4] | GRinf, [3] | log2 fractional inhibitory concentration, [2] | log2 fractional inhibitory concentration, [5]
growth medium: acidic pH 5.7, glycerol, time point: constant time point | 0.122 | 0.837 | -0.0739 | – | -0.476
growth medium: acidic pH 5.7, glycerol, time point: terminal time point | 0.0981 | 0.989 | -0.214 | 0.0843 | 0.638
growth medium: butyrate 5 mM, time point: constant time point | 0.0681 | 0.911 | 0.0455 | – | 0.936
growth medium: butyrate 5 mM, time point: terminal time point | 0.0502 | 0.954 | 0.0337 | -0.108 | 0.703
growth medium: cholesterol 0.05 mM, time point: constant time point | 0.121 | 1 | -1 | -0.482 | 0.779
growth medium: cholesterol 0.05 mM, time point: terminal time point | 0.104 | 1 | -0.945 | -1.28 | -0.083
growth medium: cholesterol 0.2 mM (cholesterol-high), time point: constant time point | 0.0903 | 1 | -1 | – | -0.151
growth medium: cholesterol 0.2 mM (cholesterol-high), time point: terminal time point | 0.109 | 1 | -0.852 | -0.0598 | -0.578
growth medium: standard 7H9 OADC glycerol, time point: constant = terminal time point (4.2 d) | 0.0717 | 0.982 | -0.118 | 0.432 | 0.607
growth medium: valerate 0.1%, time point: constant time point | 0.132 | 0.931 | -1 | – | -0.351
growth medium: valerate 0.1%, time point: terminal time point | 0.0852 | 0.975 | -0.02 | 0.287 | 0.139

growth medium: hypoxic dormancy (butyrate + nitrate), then recovery
Settings | AUC25, [1] | Einf, [4] | GRinf, [3] | log2 fractional inhibitory concentration, [2] | log2 fractional inhibitory concentration, [5]
time point: constant time point | 0.0614 | 0.989 | -0.104 | – | 0.45
time point: terminal time point | 0.0966 | 0.979 | -0.187 | 0.341 | 1.4

O=[N+]([O-])c1cn2c(n1)OC[C@@H](OCc1ccc(OC(F)(F)F)cc1)C2 [pretomanid] + CC(=O)NC[C@H]1CN(c2ccc(N3CCSCC3)c(F)c2)C(=O)O1 [sutezolid]
Settings | AUC25, [1] | Einf, [4] | GRinf, [3] | log2 fractional inhibitory concentration, [2] | log2 fractional inhibitory concentration, [5]
growth medium: acidic pH 5.7, glycerol, time point: constant time point | 0.0784 | 0.879 | -0.246 | – | -0.119
growth medium: acidic pH 5.7, glycerol, time point: terminal time point | 0.0823 | 0.987 | -0.346 | -0.449 | 0.0862
growth medium: butyrate 5 mM, time point: constant time point | 0.0935 | 0.93 | 0.0242 | – | 1.07
growth medium: butyrate 5 mM, time point: terminal time point | 0.0736 | 0.97 | -0.0169 | 1.11 | 0.95
growth medium: cholesterol 0.05 mM, time point: constant time point | 0.0266 | 0.865 | -1 | – | -0.159
growth medium: cholesterol 0.2 mM (cholesterol-high), time point: constant time point | 0.0533 | 0.961 | -0.417 | 0.19 | -0.512
growth medium: cholesterol 0.2 mM (cholesterol-high), time point: terminal time point | 0.0918 | 1 | -0.326 | -0.4 | -0.395
growth medium: standard 7H9 OADC glycerol, time point: constant = terminal time point (4.2 d) | 0.0632 | 0.988 | -0.142 | -0.266 | 0.0178
growth medium: valerate 0.1%, time point: constant time point | 0.119 | 0.974 | -0.158 | – | -0.783
growth medium: valerate 0.1%, time point: terminal time point | 0.0856 | 0.978 | -0.0339 | -0.487 | -0.609

growth medium: hypoxic dormancy (butyrate + nitrate), then recovery
Settings | AUC25, [1] | Einf, [4] | GRinf, [3] | log2 fractional inhibitory concentration, [2] | log2 fractional inhibitory concentration, [5]
time point: constant time point | 0.0715 | 0.965 | 0.332 | -0.853 | -0.376
time point: terminal time point | 0.0423 | 0.932 | 0.457 | -0.41 | -0.056

CC(C)/N=c1\cc2n(-c3ccc(Cl)cc3)c3ccccc3nc-2cc1Nc1ccc(Cl)cc1 [clofazimine] + CC(=O)NC[C@H]1CN(c2ccc(N3CCSCC3)c(F)c2)C(=O)O1 [sutezolid]
Settings | AUC25, [1] | Einf, [4] | GRinf, [3] | log2 fractional inhibitory concentration, [2] | log2 fractional inhibitory concentration, [5]
growth medium: acidic pH 5.7, glycerol, time point: constant time point | 0.101 | 0.875 | 0.0525 | – | 0.684
growth medium: acidic pH 5.7, glycerol, time point: terminal time point | 0.108 | 0.981 | -0.188 | -0.457 | -0.139
growth medium: butyrate 5 mM, time point: constant time point | 0.0828 | 0.911 | 0.00728 | – | -1.05
growth medium: butyrate 5 mM, time point: terminal time point | 0.0725 | 0.961 | -0.00637 | -1.04 | -1.03
growth medium: cholesterol 0.05 mM, time point: constant time point | 0.112 | 1 | -1 | -0.263 | -0.848
growth medium: cholesterol 0.05 mM, time point: terminal time point | 0.125 | 1 | -0.651 | -0.782 | -1.5
growth medium: cholesterol 0.2 mM (cholesterol-high), time point: constant time point | 0.1 | 0.983 | -0.741 | -0.0175 | -0.164
growth medium: cholesterol 0.2 mM (cholesterol-high), time point: terminal time point | 0.116 | 1 | -0.833 | -0.392 | -0.588
growth medium: standard 7H9 OADC glycerol, time point: constant = terminal time point (4.2 d) | 0.0934 | 0.967 | -0.00824 | -0.528 | -0.402
growth medium: valerate 0.1%, time point: constant time point | 0.118 | 0.949 | -0.364 | – | 0.279
growth medium: valerate 0.1%, time point: terminal time point | 0.0261 | 0.967 | 0.184 | -1.6 | 0.564

growth medium: hypoxic dormancy (butyrate + nitrate), then recovery
Settings | AUC25, [1] | Einf, [4] | GRinf, [3] | log2 fractional inhibitory concentration, [2] | log2 fractional inhibitory concentration, [5]
time point: constant time point | 0.0485 | 0.988 | 0.181 | -0.341 | -0.185
time point: terminal time point | 0.0291 | 0.974 | 0.351 | -0.881 | 0.178

CO[C@H]1/C=C/O[C@@]2(C)Oc3c(C)c(O)c4c(O)c(c(/C=N/N5CCN(C6CCCC6)CC5)c(O)c4c3C2=O)NC(=O)/C(C)=C\C=C\[C@H](C)[C@H](O)[C@@H](C)[C@@H](O)[C@@H](C)[C@H](OC(C)=O)[C@@H]1C [rifapentine] + CC(=O)NC[C@H]1CN(c2ccc(N3CCSCC3)c(F)c2)C(=O)O1 [sutezolid]
Settings | AUC25, [1] | Einf, [4] | GRinf, [3] | log2 fractional inhibitory concentration, [2] | log2 fractional inhibitory concentration, [5]
growth medium: acidic pH 5.7, glycerol, time point: constant time point | 0.0889 | 0.884 | -0.224 | – | -0.201
growth medium: acidic pH 5.7, glycerol, time point: terminal time point | 0.0808 | 0.987 | -0.263 | -0.527 | 0.0996
growth medium: butyrate 5 mM, time point: constant time point | 0.0809 | 0.896 | 0.0472 | – | 0.129
growth medium: butyrate 5 mM, time point: terminal time point | 0.0542 | 0.942 | 0.0324 | -0.276 | 0.16
growth medium: cholesterol 0.05 mM, time point: constant time point | 0.0962 | 1 | -1 | 0.00059 | -0.454
growth medium: cholesterol 0.05 mM, time point: terminal time point | 0.135 | 1 | -1 | -0.142 | -1.5
growth medium: cholesterol 0.2 mM (cholesterol-high), time point: constant time point | 0.0718 | 1 | -1 | -0.285 | -0.331
growth medium: cholesterol 0.2 mM (cholesterol-high), time point: terminal time point | 0.0787 | 1 | -0.769 | -0.276 | -0.38
growth medium: standard 7H9 OADC glycerol, time point: constant = terminal time point (4.2 d) | 0.0417 | 0.983 | -0.0675 | -0.509 | -0.00234
growth medium: valerate 0.1%, time point: constant time point | 0.107 | 0.877 | -0.107 | – | -0.128
growth medium: valerate 0.1%, time point: terminal time point | 0.0657 | 0.976 | -0.0835 | 0.234 | 0.176

growth medium: hypoxic dormancy (butyrate + nitrate), then recovery
Settings | AUC25, [1] | Einf, [4] | GRinf, [3] | log2 fractional inhibitory concentration, [2] | log2 fractional inhibitory concentration, [5]
time point: constant time point | 0.0482 | 0.974 | 0.21 | -0.514 | -0.541
time point: terminal time point | 0.0473 | 0.963 | 0.209 | 0.244 | 0.397

NC(=O)c1cnccn1 [pyrazinamide] + CC(=O)NC[C@H]1CN(c2ccc(N3CCSCC3)c(F)c2)C(=O)O1 [sutezolid]
Settings | AUC25, [1] | Einf, [4] | GRinf, [3] | log2 fractional inhibitory concentration, [2] | log2 fractional inhibitory concentration, [5]
growth medium: acidic pH 5.7, glycerol, time point: constant time point | 0.128 | 0.818 | -0.0805 | – | -0.856
growth medium: acidic pH 5.7, glycerol, time point: terminal time point | 0.124 | 0.99 | -0.272 | -0.518 | -0.292
growth medium: butyrate 5 mM, time point: constant time point | 0.0878 | 0.913 | 0.0976 | – | 0.557
growth medium: butyrate 5 mM, time point: terminal time point | 0.0684 | 0.949 | 0.124 | – | –
growth medium: cholesterol 0.05 mM, time point: constant time point | 0.0696 | 1 | -1 | – | 0.194
growth medium: cholesterol 0.2 mM (cholesterol-high), time point: constant time point | 0.0979 | 0.996 | -0.785 | 0.258 | 0.242
growth medium: cholesterol 0.2 mM (cholesterol-high), time point: terminal time point | 0.105 | 1 | -0.929 | 0.207 | -0.145
growth medium: valerate 0.1%, time point: constant time point | 0.0804 | 0.884 | -0.147 | – | 0.999
growth medium: valerate 0.1%, time point: terminal time point | 0.0613 | 0.962 | -0.0671 | – | 0.436

growth medium: hypoxic dormancy (butyrate + nitrate), then recovery
Settings | AUC25, [1] | Einf, [4] | GRinf, [3] | log2 fractional inhibitory concentration, [5]
time point: constant time point | 0.0726 | 0.984 | -0.401 | –
time point: terminal time point | 0.0286 | 0.786 | -0.5 | 0.898
